pIC50: −log10 of the molar value. Counter-ions that a name gives are not always drawn. A value given as a limit tells only on which side of the number the result lay.

The record followed here is patent publication US20190322676A1, “CERAMIDE GALACTOSYLTRANSFERASE INHIBITORS FOR THE TREATMENT OF DISEASE” (BioMarin Pharmaceutical Inc., priority 2016, published 2019).

This assay has as its target T1, human CGT (ceramide galactosyltransferase), CHO/CGT lysate (Homo sapiens, UniProt Q16880).
T1 construct: Full-length human CGT cDNA was cloned into the BamH1/Xho1 site of pcDNA3.1 (+); expressed in transfected cells; host or cells: Chinese hamster ovary (CHO) cells; lysate prepared with M-PER
T1 sequence (Q16880 21-541): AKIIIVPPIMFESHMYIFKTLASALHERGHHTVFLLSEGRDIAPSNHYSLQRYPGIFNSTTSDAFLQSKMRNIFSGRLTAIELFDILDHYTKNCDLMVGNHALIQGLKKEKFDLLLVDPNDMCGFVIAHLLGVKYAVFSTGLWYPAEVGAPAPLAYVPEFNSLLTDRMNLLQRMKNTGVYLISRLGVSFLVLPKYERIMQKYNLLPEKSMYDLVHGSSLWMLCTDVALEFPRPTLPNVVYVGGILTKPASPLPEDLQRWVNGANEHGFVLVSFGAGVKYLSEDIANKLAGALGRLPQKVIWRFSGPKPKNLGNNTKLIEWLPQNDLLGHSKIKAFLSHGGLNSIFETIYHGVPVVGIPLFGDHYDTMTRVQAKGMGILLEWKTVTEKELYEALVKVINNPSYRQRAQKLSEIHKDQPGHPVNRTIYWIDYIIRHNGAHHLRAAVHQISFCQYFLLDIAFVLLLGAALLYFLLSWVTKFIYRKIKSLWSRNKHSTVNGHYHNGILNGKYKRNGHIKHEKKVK
Kind of assay: CGT enzyme assay, RapidFire/MS/MS readout (Table 1 ranges with one asterisk *). As to conditions: RapidFire method (range with one asterisk *). Type of assay: biochemical. The procedure: Full-length human CGT cDNA was cloned into the BamH1/Xho1 site of pcDNA3.1 (+) mammalian expression vector (V90-20, Invitrogen, Carlsbad, Calif.) and the plasmid was transfected into Chinese hamster ovary (CHO) cells. Lysate was prepared using M-PER (Mammalian Protein Extraction Reagent, ThermoFisher Scientific, Grand Island, N.Y.) in the presence of a protease inhibitor cocktail (P8340, Sigma, Saint Louis, Mo.). Each 100 mm dish (100% confluent, approximately 1×10^7 cells) was lysed with 250 μL of M-PER containing protease inhibitors. Protein concentration was determined using a Pierce BCA protein assay kit (ThermoFisher Scientific). Four micrograms of CHO/CGT lysate was incubated with various concentrations of a compound (0.001 μM-50 μM) in 10 mM HEPES (pH 7.2) containing 35 μM dioleoylphosphatidylcholine, 5 mM MgCl2, 5 mM MnCl2, 1% BSA, 15 mM KCl, 1 mM EGTA, 8 mM CHAPS, 10 μM C6-NBD-dihydro-ceramide and 17.5 μM UDP-galactose in a final reaction volume of 20 μL at 37° C. for 1 hour. The final concentration of DMSO was 0.5% in both compound-treated and mock-treated samples. Tween 80 (0.01%) was optionally added to the reaction mixture to help solubilize the compounds. Each individual reaction was diluted with 80 μL of methanol:acetronitrile (1:3) containing 5 μM N-docdecanoyl-NBD-galactosylceramide (internal standard) to stop the reaction. 200 μL H2O:acetonitile (1:1) was added to precipitate the protein. After sufficient mixing, the plates were centrifuged at 2469 g for 38 minutes, 200 μL of supernatant was transferred to a LC/MS 96-deep well plate and a second spin was performed at 2469 g for 10 minutes. The final supernatant was injected in triplicate for RapidFire/MS/MS analysis.
Quantitative Analysis Using the RapidFire/MS/MS Method:
The quantitative analysis of C6-NBD-dihydro-ceramide and C6-NBD-dihydro-galactosylceramide was performed on a Rapid Fire 360 high-throughput mass spectrometry system (Agilent Technologies, Palo Alto, Calif.) coupled with a API4000^+ triple quadrupole mass spectrometer (Applied Biosystems, Concord, Ontario, Canada). RapidFire software packages, including RapidFire Control panel, RapidFire UI and RapidFire Integrator (Agilent Technologies), were used to control the RapidFire instrument and to process data. Analyst 1.6.2 software packages (Applied Biosystems) were used to control the MS system and acquire MS data. […] of sample was loaded on a micro-scale C4 solid-phase extraction (SPE) cartridge (Agilent Technologies) and salts were removed using water supplemented with 0.1% formic acid at the flow rate of 1.5 mL/min for 3 sec. C6-NBD-dihydro-ceramide and C6-NBD-dihydro-galactosylceramide were co-eluted into the mass spectrometer using acetonitrile containing 0.1% formic acid at the flow rate of 1.0 mL/min for 3 sec. The total cycle time of one injection was 8 secs. The MS/MS detection was performed in ESI negative mode. The mass transition of C6-NBD-dihydro-galactosylceramide was m/z 752.6→678.6 using a −40 V collision energy, the mass transition of C6-NBD-dihydro-ceramide was m/z 590.6→115.8 using a −40 V collision energy and the mass transition of N-docdecanoyl-NBD-galactosylceramide was m/z 820.9→746.3 using a −45 V collision energy.
The C6-NBD-dihydro-galactosylceramide reading was normalized first by dividing the peak area of C6-NBD-dihydro-galactosylceramide by the peak area of the internal standard, N-docdecanoyl-NBD-galactosylceramide. IC50 values (see Table 1, where data ranges with one asterix (*) correspond to analysis using the RapidFire/MS/MS method, and data ranges with two asterixes (**) correspond to analysis using the RapidFire/MS/MS method with 0.01% Tween added) were generated from sigmoidal dose-response curves (variable slope) with GraphPad Prism software (GraphPad Software, Inc., San Diego, Calif.) using the normalized peak areas of C6-NBD-dihydro-galactosylceramide or the percent inhibition of C6-NBD-dihydro-galactosylceramide accumulation relative to DMSO control. […]

On to `NC1CCN(C(=O)[C@H](NS(=O)(=O)c2ccc3cc(OC4CCCC4)ccc3c2)C(F)(F)c2ccc(Br)cc2)CC1` [Compound 32-2, (S)—N-(3-(4-aminopiperidin-1-yl)-1-(4-bromophenyl)-1,1-difluoro-3-oxopropan-2-yl)-6-(cyclopentyloxy)naphthalene-2-sulfonamide trifluoroacetate], for which the pIC50 – broadly, the IC50 on a negative log10 scale, so that one unit is a factor of ten – was 4.52 to 5.00.

In the case of `NC1CC2CCC(C1)N2C(=O)[C@@H](NS(=O)(=O)c1ccc2cc(OC3CCCCC3)ccc2c1)C(F)(F)c1ccc(Br)cc1` (stereo partly drawn) [Compound 33-1, N-((2R)-3-(3-amino-8-azabicyclo[3.2.1]octan-8-yl)-1-(4-bromophenyl)-1,1-difluoro-3-oxopropan-2-yl)-6-(cyclohexyloxy)naphthalene-2-sulfonamide trifluoroacetate], the pIC50 was above 6.00.

On to `NC1CC2CCC(C1)N2C(=O)[C@H](NS(=O)(=O)c1ccc2cc(OC3CCCCC3)ccc2c1)C(F)(F)c1ccc(Br)cc1` (stereo partly drawn) [Compound 33-2, N-((2S)-3-(3-amino-8-azabicyclo[3.2.1]octan-8-yl)-1-(4-bromophenyl)-1,1-difluoro-3-oxopropan-2-yl)-6-(cyclohexyloxy)naphthalene-2-sulfonamide trifluoroacetate], for which the pIC50 was 4.00 to 4.52.

`CN([C@H](C(=O)N1C2CCC1CC(N)C2)C(F)(F)c1ccc(Br)cc1)S(=O)(=O)c1ccc2cc(OC3CCCC3)ccc2c1` (stereo partly drawn) [Compound 34-1, N-((2R)-3-(3-amino-8-azabicyclo[3.2.1]octan-8-yl)-1-(4-bromophenyl)-1,1-difluoro-3-oxopropan-2-yl)-6-(cyclopentyloxy)-N-methylnaphthalene-2-sulfonamide trifluoroacetate] had a pIC50 above 6.00.

`CN([C@@H](C(=O)N1C2CCC1CC(N)C2)C(F)(F)c1ccc(Br)cc1)S(=O)(=O)c1ccc2cc(OC3CCCC3)ccc2c1` (stereo partly drawn) [Compound 34-2, N-((2S)-3-(3-amino-8-azabicyclo[3.2.1]octan-8-yl)-1-(4-bromophenyl)-1,1-difluoro-3-oxopropan-2-yl)-6-(cyclopentyloxy)-N-methylnaphthalene-2-sulfonamide trifluoroacetate] had a pIC50 of 4.00 to 4.52.

Compound `NC1CC2CCC(C1)N2C(=O)[C@@H](NS(=O)(=O)c1ccc(OCC2CCCCC2)cc1)C(F)(F)c1ccc(-c2ccccc2)cc1` (stereo partly drawn) [Compound 35-1, N-((2R)-1-([1,1′-biphenyl]-4-yl)-3-(3-amino-8-azabicyclo[3.2.1]octan-8-yl)-1,1-difluoro-3-oxopropan-2-yl)-4-(cyclohexylmethoxy)benzenesulfonamide trifluoroacetate] gave a pIC50 above 6.00.

Compound `NC1CC2CCC(C1)N2C(=O)[C@H](NS(=O)(=O)c1ccc(OCC2CCCCC2)cc1)C(F)(F)c1ccc(-c2ccccc2)cc1` (stereo partly drawn) [Compound 35-2, N-((2S)-1-([1,1′-biphenyl]-4-yl)-3-(3-amino-8-azabicyclo[3.2.1]octan-8-yl)-1,1-difluoro-3-oxopropan-2-yl)-4-(cyclohexylmethoxy) benzenesulfonamide trifluoroacetate] showed a pIC50 of 4.52 to 5.00.

On to `NC1CC2CCC(C1)N2C(=O)[C@@H](NS(=O)(=O)c1ccc2cc(OC3CCCC3)ccc2c1)C(F)(F)c1ccc(-c2ccccc2)cc1` (stereo partly drawn) [Compound 36-1, N-((2R)-1-([1,1′-biphenyl]-4-yl)-3-(3-amino-8-azabicyclo[3.2.1]octan-8-yl)-1,1-difluoro-3-oxopropan-2-yl)-6-(cyclopentyloxy)naphthalene-2-sulfonamide trifluoroacetate], for which the pIC50 is above 6.00.

Take `NC1CC2CCC(C1)N2C(=O)[C@H](NS(=O)(=O)c1ccc2cc(OC3CCCC3)ccc2c1)C(F)(F)c1ccc(-c2ccccc2)cc1` (stereo partly drawn) [Compound 36-2, N-((2S)-1-([1,1′-biphenyl]-4-yl)-3-(3-amino-8-azabicyclo[3.2.1]octan-8-yl)-1,1-difluoro-3-oxopropan-2-yl)-6-(cyclopentyloxy)naphthalene-2-sulfonamide trifluoroacetate]: the pIC50 was 5.00 to 6.00.

`CN([C@H](C(=O)N1C2CCC1CC(N)C2)C(F)(F)c1ccc(Br)cc1)S(=O)(=O)c1ccc2cc(OC3CCCCC3)ccc2c1` (stereo partly drawn) [Compound 37-1, N-((2R)-3-(3-amino-8-azabicyclo[3.2.1]octan-8-yl)-1-(4-bromophenyl)-1,1-difluoro-3-oxopropan-2-yl)-6-(cyclohexyloxy)-N-methylnaphthalene-2-sulfonamide trifluoroacetate] had a pIC50 above 6.00.

For the compound `CN([C@@H](C(=O)N1C2CCC1CC(N)C2)C(F)(F)c1ccc(Br)cc1)S(=O)(=O)c1ccc2cc(OC3CCCCC3)ccc2c1` (stereo partly drawn) [Compound 37-2, N-((2S)-3-(3-amino-8-azabicyclo[3.2.1]octan-8-yl)-1-(4-bromophenyl)-1,1-difluoro-3-oxopropan-2-yl)-6-(cyclohexyloxy)-N-methylnaphthalene-2-sulfonamide trifluoroacetate], the negative logarithm of the IC50 (pIC50) is 4.00 to 4.52.

`NC1CC2CCC(C1)N2C(=O)[C@@H](NS(=O)(=O)c1ccc2cc(OC3CCCC3)ccc2c1)C(F)(F)c1ccc2cc(Br)ccc2c1` (stereo partly drawn) [Compound 38-1, N-((2R)-3-(3-amino-8-azabicyclo[3.2.1]octan-8-yl)-1-(6-bromonaphthalen-2-yl)-1,1-difluoro-3-oxopropan-2-yl)-6-(cyclopentyloxy) naphthalene-2-sulfonamide trifluoroacetate]: the pIC50 was 5.00 to 6.00.

With `NC1CC2CCC(C1)N2C(=O)[C@H](NS(=O)(=O)c1ccc2cc(OC3CCCC3)ccc2c1)C(F)(F)c1ccc2cc(Br)ccc2c1` (stereo partly drawn) [Compound 38-2, N-((2S)-3-(3-amino-8-azabicyclo[3.2.1]octan-8-yl)-1-(6-bromonaphthalen-2-yl)-1,1-difluoro-3-oxopropan-2-yl)-6-(cyclopentyloxy)naphthalene-2-sulfonamide trifluoroacetate], the pIC50 was 5.00 to 6.00.

The compound `NC1CC2CCC(C1)N2C(=O)[C@@H](NS(=O)(=O)c1ccc(OCC2CCCC2)cc1)C(F)(F)c1ccc2cc(Br)ccc2c1` (stereo partly drawn) [Compound 39-1, N-((2R)-3-(3-amino-8-azabicyclo[3.2.1]octan-8-yl)-1-(6-bromonaphthalen-2-yl)-1,1-difluoro-3-oxopropan-2-yl)-4-(cyclopentylmethoxy) benzenesulfonamide trifluoroacetate] had a pIC50 of 5.00 to 6.00.

On to `NC1CC2CCC(C1)N2C(=O)[C@H](NS(=O)(=O)c1ccc(OCC2CCCC2)cc1)C(F)(F)c1ccc2cc(Br)ccc2c1` (stereo partly drawn) [Compound 39-2, N-((2S)-3-(3-amino-8-azabicyclo[3.2.1]octan-8-yl)-1-(6-bromonaphthalen-2-yl)-1,1-difluoro-3-oxopropan-2-yl)-4-(cyclopentylmethoxy)benzenesulfonamide trifluoroacetate], for which the pIC50 was 4.52 to 5.00.
